Assay results: DBAASP
≈ marks a conversion by molar mass, not a printed value. Where “and” joins values, the source holds several entries; their conditions need not be identical. Equal entries are not always repeated.

Key:
Experiment in all cases: ≥ marks a high value that may be exact or a test limit, other limits are often not marked, values filed in µg/mL are converted to µM
[1] = system: Mycobacterium tuberculosis
[2] = system: Staphylococcus aureus ATCC 25923
[3] = system: Escherichia coli ATCC 25922
[4] = system: Mycobacterium tuberculosis H37Rv
[5] = system: Klebsiella pneumoniae ATCC 700603
[6] = system: Pseudomonas aeruginosa ATCC 27853
[7] = system: Staphylococcus aureus ATCC 33591
[8] = system: Staphylococcus aureus ATCC 29213
[9] = system: Staphylococcus aureus ATCC 700699
[10] = system: Fusarium oxysporum f. sp. lycopersici ATCC 201829
[11] = system: Penicillium expansum EPS 26
[12] = system: Rhizopus stolonifer CECT 2344
[13] = system: Aspergillus niger CECT 2694
Saccharomyces cerevisiae = system: Saccharomyces cerevisiae
[14] = system: Pseudomonas aeruginosa ATCC 15692
[15] = system: Pseudomonas aeruginosa NBRC 12582
[16] = system: Micrococcus luteus NBRC 12708
Micrococcus luteus = system: Micrococcus luteus
[17] = system: Staphylococcus aureus NBRC 12732
[18] = system: Escherichia coli NBRC 14237
[19] = system: Escherichia coli DH5alpha
[20] = system: Bacillus subtilis DSM 347
[21] = system: Escherichia coli KCTC 1682
[22] = system: Escherichia coli KCTC 2571
[23] = system: Staphylococcus aureus KCTC 1621
[24] = system: Pseudomonas aeruginosa KCTC 2513
[25] = system: Staphylococcus aureus KCTC 1916
[26] = system: Pseudomonas aeruginosa KCTC 2004
[27] = system: Staphylococcus aureus KCTC 3881
[28] = system: Bacillus subtilis KCTC 1021
[29] = system: Salmonella typhimurium KCTC 1926
[30] = system: Pseudomonas aeruginosa KCTC 1637
[31] = system: Escherichia coli KCTC 2593
[32] = system: Staphylococcus epidermidis KCTC 1917
[33] = system: Bacillus subtilis KCTC 1022
[34] = system: Bacillus subtilis KCTC 3068

With `CC[C@H](C)[C@H](NC(=O)[C@H](CC(C)C)NC(=O)[C@H](CCCCN)NC(=O)[C@H](CC(C)C)NC(=O)[C@H](C)NC(=O)CNC(=O)[C@H](CCCCN)NC(=O)[C@H](C)NC(=O)[C@H](CC(C)C)NC(=O)[C@H](C)NC(=O)CNC(=O)[C@H](Cc1c[nH]c2ccccc12)NC(=O)[C@@H](N)Cc1ccccc1)C(=O)NCC(=O)N1CCC[C@H]1C(=O)NCC(=O)N[C@@H](CO)C(=O)N[C@@H](CC(C)C)C(=O)N[C@@H](Cc1ccccc1)C(=O)N[C@@H](CO)C(=O)N[C@@H](CO)C(=O)N[C@@H](Cc1ccccc1)C(=O)N[C@@H](CO)C(=O)N[C@@H](CCCCN)C(=O)N[C@@H](CCCCN)C(=O)N[C@@H](CC(=O)O)C(=O)O` [FWGALAKGALKLIGPGSLFSSFSKKD] the MIC [1] was 17.6 µM (≈ 48.1 µg/mL), the MIC [2] was 12.5 µM and 25 µM and the MIC [3] was 12.5 µM and 25 µM. It also gave an MIC [4] of 29.4 µM (≈ 80.1 µg/mL).

Compound `CC[C@H](C)[C@H](NC(=O)[C@H](CC(=O)O)NC(=O)[C@H](CCCCN)NC(=O)[C@H](C)NC(=O)[C@H](C)NC(=O)CNC(=O)[C@H](CCCCN)NC(=O)[C@H](CC(C)C)NC(=O)[C@@H](NC(=O)[C@H](CC(=O)O)NC(=O)[C@@H](NC(=O)[C@@H](NC(=O)CN)C(C)C)C(C)C)[C@@H](C)CC)C(=O)N[C@@H](CC(C)C)C(=O)NCC(=O)N[C@@H](Cc1cnc[nH]1)C(=O)N[C@@H](CC(C)C)C(=O)N[C@@H](C)C(=O)N[C@@H](CO)C(=O)N[C@@H](CCCCN)C(=O)N[C@H](C(=O)N[C@@H](CCSC)C(=O)N[C@@H](CC(N)=O)C(=O)N[C@@H](CCCCN)C(=O)N[C@@H](CC(C)C)C(N)=O)C(C)C` [GVVDILKGAAKDILGHLASKVMNKL] has an MIC [5] of 25 µM (≈ 64.8 µg/mL), an MIC [6] of 50 µM (≈ 130 µg/mL) and an MIC [7] of 25 µM (≈ 64.8 µg/mL). The MIC [8] was 100 µM (≈ 259 µg/mL), the MIC [3] was 6.25 µM (≈ 16.2 µg/mL) and the MIC [9] was ≥ 50 µM.

In the case of `CC[C@H](C)[C@H](NC(=O)[C@H](CCCCN)NC(=O)[C@H](CCCCN)NC(=O)[C@H](Cc1ccccc1)NC(=O)[C@H](CC(C)C)NC(=O)[C@H](CCCCN)NC(=O)[C@@H](N)Cc1ccccc1)C(=O)N[C@@H](CC(C)C)C(=O)N[C@@H](CCCCN)C(=O)N[C@H](C(=O)N[C@@H](CC(C)C)C(N)=O)C(C)C` [FKLFKKILKVL], the MIC [10] is reported as 1.73 µM (≈ 2.38 µg/mL), the MIC [11] is reported as ≥ 35.4 µM and the MIC [12] is reported as ≥ 70.7 µM. For the same compound, the MIC [13] was 22.4 µM (≈ 30.8 µg/mL).

With `CC(C)C[C@H](NC(=O)[C@H](CC(C)C)NC(=O)[C@H](CC(N)=O)NC(=O)[C@H](CO)NC(=O)CNC(=O)[C@@H](NC(=O)[C@H](CCCCN)NC(=O)[C@H](CC(C)C)NC(=O)CNC(=O)[C@@H](NC(=O)[C@H](CCCCN)NC(=O)[C@H](CC(C)C)NC(=O)[C@H](CC(C)C)NC(=O)[C@H](CO)NC(=O)CNC(=O)[C@H](CC(C)C)NC(=O)[C@H](CC(C)C)NC(=O)[C@@H](N)CC(N)=O)[C@@H](C)O)C(C)C)C(N)=O` [NLLGSLLKTGLKVGSNLL] the MIC (Saccharomyces cerevisiae) was ≥ 64 µM, the MIC [14] was ≥ 256 µM and the MIC [15] was ≥ 50 µM. For the same compound, the MIC [2] was 32 µM (≈ 58.9 µg/mL), the MIC [16] was ≥ 50 µM and the MIC (Micrococcus luteus) was 2 µM (≈ 3.68 µg/mL). It also gave an MIC [3] of 128 µM (≈ 235 µg/mL), an MIC [17] of 12.5 µM (≈ 23 µg/mL) and an MIC [18] of 12.5 µM (≈ 23 µg/mL).

`CC[C@H](C)[C@H](NC(=O)CN)C(=O)NCC(=O)N[C@@H](CCCCN)C(=O)N[C@@H](Cc1ccccc1)C(=O)N[C@H](C(=O)N[C@@H](Cc1cnc[nH]1)C(=O)N[C@@H](C)C(=O)N[C@H](C(=O)N[C@@H](CCCCN)C(=O)N[C@@H](CCCCN)C(=O)N[C@@H](Cc1c[nH]c2ccccc12)C(=O)NCC(=O)N[C@@H](CCCCN)C(=O)N[C@H](C(=O)N[C@@H](Cc1ccccc1)C(=O)N[C@H](C(=O)NCC(=O)N[C@@H](CCC(=O)O)C(=O)N[C@H](C(=O)N[C@@H](C)C(=O)N[C@@H](CCCCN)C(=O)N[C@@H](CO)C(N)=O)[C@@H](C)CC)[C@@H](C)CC)[C@@H](C)O)C(C)C)[C@@H](C)CC` [GIGKFIHAVKKWGKTFIGEIAKS] was tested, and the MIC [19] was 0.8 µM (≈ 2.01 µg/mL) and the MIC [20] was 1.6 µM (≈ 4.02 µg/mL).

In the case of `CC[C@H](C)[C@H](NC(=O)[C@H](CC(=O)O)NC(=O)[C@H](CCCCN)NC(=O)[C@H](C)NC(=O)[C@H](C)NC(=O)CNC(=O)[C@H](CCCCN)NC(=O)[C@H](CC(C)C)NC(=O)[C@H](C)NC(=O)[C@H](CC(=O)O)NC(=O)[C@@H](NC(=O)[C@@H](NC(=O)CN)C(C)C)C(C)C)C(=O)N[C@@H](C)C(=O)NCC(=O)N[C@@H](Cc1cnc[nH]1)C(=O)N[C@@H](CC(C)C)C(=O)N[C@@H](C)C(=O)N[C@@H](CO)C(=O)N[C@@H](CCCCN)C(=O)N[C@H](C(=O)N[C@@H](CCSC)C(=O)N[C@@H](CC(N)=O)C(=O)N[C@@H](CCCCN)C(=O)N[C@@H](CC(C)C)C(N)=O)C(C)C` [GVVDALKGAAKDIAGHLASKVMNKL], the MIC [5] is reported as > 100 µM, the MIC [6] is reported as > 100 µM and the MIC [7] is reported as ≥ 100 µM. For the same compound, the MIC [8] was > 100 µM, the MIC [3] was > 100 µM and the MIC [9] was ≥ 100 µM.

`CC[C@H](C)[C@H](NC(=O)CNC(=O)[C@H](CCCN=C(N)N)NC(=O)[C@H](Cc1ccccc1)NC(=O)[C@@H](NC(=O)[C@H](Cc1cnc[nH]1)NC(=O)[C@H](Cc1cnc[nH]1)NC(=O)[C@H](Cc1ccccc1)NC(=O)[C@@H](N)Cc1c[nH]c2ccccc12)[C@@H](C)CC)C(=O)N[C@H](C(=O)N[C@@H](Cc1cnc[nH]1)C(=O)N[C@H](C(=O)NCC(=O)N[C@@H](CCCCN)C(=O)N[C@H](C(=O)N[C@H](C(=O)N[C@@H](Cc1cnc[nH]1)C(=O)N[C@@H](CCCN=C(N)N)C(=O)N[C@@H](CC(C)C)C(=O)N[C@H](C(=O)N[C@H](C(=O)NCC(=O)O)[C@@H](C)O)C(C)C)[C@@H](C)CC)[C@@H](C)O)C(C)C)C(C)C` [WFHHIFRGIVHVGKTIHRLVTG] showed an MIC [21] of 2 µM (≈ 5.22 µg/mL), an MIC [22] of 2 µM (≈ 5.22 µg/mL) and an MIC [23] of 2 µM (≈ 5.22 µg/mL). It also gave an MIC [24] of 4 µM (≈ 10.4 µg/mL), an MIC [25] of 2 µM (≈ 5.22 µg/mL) and an MIC [26] of 4 µM (≈ 10.4 µg/mL). The MIC [27] was 2 µM (≈ 5.22 µg/mL), the MIC [28] was 2 µM (≈ 5.22 µg/mL) and the MIC [29] was 2 µM (≈ 5.22 µg/mL). It also gave an MIC [30] of 4 µM (≈ 10.4 µg/mL), an MIC [31] of 2 µM (≈ 5.22 µg/mL) and an MIC [32] of 2 µM (≈ 5.22 µg/mL). The MIC [33] was 2 µM (≈ 5.22 µg/mL) and the MIC [34] was 2 µM (≈ 5.22 µg/mL).
